Values quoted from earlier work as cited in US20100119624A1, “BENZISOXAZOLE MODULATORS OF D2 RECEPTOR AND/OR 5-HT2A RECEPTOR” (AUSPEX PHARMACEUTICALS, INC., priority 2008, published 2010).

Legend:
prolactin = conditions: in vivo
[1] = in vivo
[2] = coadministration of nafzodone, a competitive CYP3A inhibitor

SMILES | levels of prolactin (prolactin) | half-life [1] | decrease in risperidone clearance [2]
Cc1nc2n(c(=O)c1CCN1CCC(c3noc4cc(F)ccc34)CC1)CCCC2O (stereo not drawn) [9-Hydroxyrisperidone] | elevation in the levels of prolactin |  | 
Cc1nc2n(c(=O)c1CCN1CCC(c3noc4cc(F)ccc34)CC1)CCCC2 [Risperidone, 4-[2-[4-(6-fluorobenzo[d]isoxazol-3-yl)-1-piperidyl]ethyl]-3-methyl-2,6-diazabicyclo[4.4.0]deca-1,3-dien-5-one] |  | about 2 hours | ~50%
